# Source: ChEMBL document CHEMBL1139196, “Synthesis of fluorescent-labeled aeruginosin derivatives for high-throughput fluorescence correlation spectroscopy assays” (Bioorg Med Chem Lett, 2007)
# Target: Trypsin (Homo sapiens, UniProt P07477+P07478+P35030)
# Test: Inhibition of trypsin by FCS method
# Format: protein assay
row,Structure (SMILES),IC50
1,N=C(N)NCCC[C@@H](CO)NC(=O)[C@@H]1C[C@@H]2CC[C@@H](O)C[C@@H]2N1C(=O)[C@@H](Cc1ccc(O)cc1)NC(=O)[C@H](O)Cc1ccc(O)cc1,8800 nM
2,N=C(N)NCCC[C@H](NC(=O)[C@@H]1C[C@@H]2CC[C@@H](O)C[C@@H]2N1C(=O)[C@@H](Cc1ccc(O)cc1)NC(=O)[C@H](O)Cc1ccc(O)cc1)C(=O)O,1000 nM
3,N=C(N)NCCCCNC(=O)[C@@H]1C[C@@H]2CC[C@@H](O)C[C@@H]2N1C(=O)[C@@H](Cc1ccc(O)cc1)NC(=O)[C@H](O)Cc1ccc(O)cc1,150 nM
4,N=C(N)NCCC[C@H](NC(=O)[C@@H]1C[C@@H]2CC[C@@H](O)C[C@@H]2N1C(=O)[C@H](Cc1ccccc1)NC(=O)[C@H](O)Cc1ccc(O)cc1)C(=O)O,12000 nM
5,CC(C)C[C@@H](NC(=O)[C@H](O)Cc1ccc(O)cc1)C(=O)N1[C@H](C(=O)N[C@@H](CCCNC(=N)N)C(=O)O)C[C@@H]2CC[C@@H](O)C[C@@H]21,650 nM
